Measured values taken from EPA's ToxValDB 9.5 (doi:10.2903/j.efsa.2009.262r).
Values after ≈ are worked out from the molar mass of the structure shown.

Experiments:
[1] = tested on: Aphidius rhopalosiphi; experiment: LR50; higher = less toxic; settings: not reported; mortality
[2] = tested on: Typhlodromus pyri; experiment: LR50; higher = less toxic; settings: not reported; mortality
[3] = tested on: Colinus virginianus
[4] = tested on: Tagia sp.
[5] = tested on: Oryctolagus sp.; settings: reproduction developmental; reproduction
[6] = tested on: Apis mellifera; settings: acute, mortality
[7] = tested on: Bibionidae; settings: chronic/long-term; duration: 28 days
[8] = tested on: Rattus norvegicus; settings: for NOAEL: clinical chemistry
[9] = tested on: Daphnia magna; settings: chronic/long-term; duration: 21 days
[10] = tested on: Oncorhynchus mykiss

SMILES: CCOP(=O)(SC(C)CC)SC(C)CC (configuration not stated) [Cadusafos]
- LR50 [1]: 3.75 g/ha
- LR50 [2]: 44.4 g/ha
- LC50 ([3]; acute, oral, diet, mortality): 10.8 mg/kg-day
- LD50 ([3]; acute, oral, mortality): 16.1 mg/kg-day
- NOEL ([3]; reproduction developmental): ≥ 1.1 mg/kg-day
- LC50 ([4]; acute, mortality): 7.2 mg/kg
- NOEC ([4]; chronic/long-term): 1.8 mg/kg
- NOAEL [5]: 0.3 mg/kg-day
- LD50 ([6]; dermal): 1.8 µg/piece
- LD50 ([6]; oral, unspecified): 2.07 µg/piece
- NOEC [7]: 32 µg/kg
- LD50 ([8]; acute, oral, mortality): 37.1 mg/kg
- NOAEL ([8]; chronic, duration: 2 years, F): 0.045 mg/kg-day
- NOAEL ([8]; subchronic, duration: 90 days, oral): 0.067 mg/kg-day
- NOEC [9]: 0.231 µg/L
- LC50 ([10]; acute, duration: 96 hours, mortality): 0.13 µg/mL (≈ 0.481 µM)
- NOEC ([10]; chronic/long-term, duration: 95 days): 5.22 µg/L
